Measurements taken from US9663508B2, “Biaryl acyl-sulfonamide compounds as sodium channel inhibitors” (AMGEN INC., priority 2013, dated 2017).

These molecules were tested against human Nav1.7 (Homo sapiens (Human), UniProt Q15858) (assay: Nav 1.7 in vitro PatchXpress (PX) assay). Conditions: not given.
Assay type: cell-based

Chain of human Nav1.7 (Q15858 whole entry): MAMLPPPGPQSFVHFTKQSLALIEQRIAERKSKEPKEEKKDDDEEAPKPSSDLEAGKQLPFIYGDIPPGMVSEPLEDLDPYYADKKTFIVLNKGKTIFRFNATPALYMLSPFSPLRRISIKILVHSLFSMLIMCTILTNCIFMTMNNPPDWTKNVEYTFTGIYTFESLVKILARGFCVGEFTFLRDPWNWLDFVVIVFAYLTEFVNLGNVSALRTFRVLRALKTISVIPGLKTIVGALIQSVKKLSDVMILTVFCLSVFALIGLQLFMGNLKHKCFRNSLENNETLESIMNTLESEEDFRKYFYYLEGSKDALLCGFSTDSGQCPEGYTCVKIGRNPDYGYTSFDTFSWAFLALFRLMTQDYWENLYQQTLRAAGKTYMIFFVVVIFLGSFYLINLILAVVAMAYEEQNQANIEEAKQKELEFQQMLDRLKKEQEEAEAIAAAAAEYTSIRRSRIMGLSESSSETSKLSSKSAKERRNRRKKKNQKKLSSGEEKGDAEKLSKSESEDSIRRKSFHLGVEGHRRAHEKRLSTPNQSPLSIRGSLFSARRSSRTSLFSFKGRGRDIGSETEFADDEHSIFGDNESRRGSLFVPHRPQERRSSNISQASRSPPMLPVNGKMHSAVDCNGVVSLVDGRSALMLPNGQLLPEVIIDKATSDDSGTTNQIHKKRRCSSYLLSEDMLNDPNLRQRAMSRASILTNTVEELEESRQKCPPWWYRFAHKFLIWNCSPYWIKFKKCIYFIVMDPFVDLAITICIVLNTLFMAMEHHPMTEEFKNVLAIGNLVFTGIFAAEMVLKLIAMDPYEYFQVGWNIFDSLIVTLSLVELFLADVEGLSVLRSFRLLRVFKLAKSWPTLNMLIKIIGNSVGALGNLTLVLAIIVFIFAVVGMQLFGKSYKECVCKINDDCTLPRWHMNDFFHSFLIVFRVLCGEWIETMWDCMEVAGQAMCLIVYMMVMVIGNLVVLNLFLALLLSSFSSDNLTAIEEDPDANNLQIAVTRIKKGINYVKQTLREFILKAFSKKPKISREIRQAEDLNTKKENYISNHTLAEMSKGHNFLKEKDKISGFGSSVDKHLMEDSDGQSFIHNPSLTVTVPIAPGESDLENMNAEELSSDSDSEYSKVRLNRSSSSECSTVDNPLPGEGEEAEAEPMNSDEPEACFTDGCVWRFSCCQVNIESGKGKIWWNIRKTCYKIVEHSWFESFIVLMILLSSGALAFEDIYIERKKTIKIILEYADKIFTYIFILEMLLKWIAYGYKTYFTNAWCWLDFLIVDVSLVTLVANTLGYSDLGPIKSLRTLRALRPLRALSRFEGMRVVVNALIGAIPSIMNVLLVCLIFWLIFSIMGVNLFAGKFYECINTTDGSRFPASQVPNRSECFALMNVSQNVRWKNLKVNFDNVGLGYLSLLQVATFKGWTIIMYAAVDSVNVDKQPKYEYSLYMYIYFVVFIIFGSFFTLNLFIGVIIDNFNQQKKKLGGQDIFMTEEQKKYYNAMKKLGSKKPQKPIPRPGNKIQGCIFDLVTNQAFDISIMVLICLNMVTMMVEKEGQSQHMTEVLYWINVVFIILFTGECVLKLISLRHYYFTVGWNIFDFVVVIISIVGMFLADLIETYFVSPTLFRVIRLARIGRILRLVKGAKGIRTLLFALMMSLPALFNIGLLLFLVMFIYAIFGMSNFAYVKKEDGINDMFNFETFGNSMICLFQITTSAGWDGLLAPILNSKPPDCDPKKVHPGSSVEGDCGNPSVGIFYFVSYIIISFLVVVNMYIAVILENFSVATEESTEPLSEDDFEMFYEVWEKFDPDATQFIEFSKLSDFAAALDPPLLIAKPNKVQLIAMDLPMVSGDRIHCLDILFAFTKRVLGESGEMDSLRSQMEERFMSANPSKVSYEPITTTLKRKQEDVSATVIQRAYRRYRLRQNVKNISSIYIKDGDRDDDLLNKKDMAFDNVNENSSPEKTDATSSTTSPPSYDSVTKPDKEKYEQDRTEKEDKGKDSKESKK

IC50 | Molecule
0.0823 µM | COc1cc(C(=O)NS(C)(=O)=O)ccc1-c1cnc(Oc2c(C)cccc2Cl)c(Cl)c1 [Example 327, 4-(5-chloro-6-(2-chloro-6-methylphenoxy)-3-pyridinyl)-3-methoxy-N-(methylsulfonyl)benzamide]
0.0847 µM | COc1cc(C(=O)NS(C)(=O)=O)ccc1-c1cnc(Oc2ccc(C)c(Cl)c2)c(Cl)c1 [Example 329, 4-(5-chloro-6-(3-chloro-4-methylphenoxy)-3-pyridinyl)-3-methoxy-N-(methylsulfonyl)benzamide]
0.0915 µM | COc1cc(C(=O)NS(C)(=O)=O)ccc1-c1cnc(Oc2ccc(C)cc2Cl)c(Cl)c1 [Example 344, 4-(5-chloro-6-(2-chloro-4-methylphenoxy)-3-pyridinyl)-3-methoxy-N-(methylsulfonyl)benzamide]
0.0926 µM | COc1cc(C(=O)NS(C)(=O)=O)ccc1-c1cnc(Oc2ccc(Cl)cc2)c(Cl)c1 [Example 350, 4-(5-chloro-6-(4-chlorophenoxy)-3-pyridinyl)-3-methoxy-N-(methylsulfonyl)benzamide]
0.0877 µM | COc1cc(C(=O)NS(C)(=O)=O)ccc1-c1cnc(N2CCC[C@H]2C(C)C)c(Cl)c1 [Example 355, 4-(5-chloro-6-((2S)-2-(1-methylethyl)-1-pyrrolidinyl)-3-pyridinyl)-3-methoxy-N-(methylsulfonyl)benzamide]
0.0882 µM | COc1cc(C(=O)NS(C)(=O)=O)ccc1-c1cnc(Oc2ccc(F)c(F)c2F)c(Cl)c1 [Example 357, 4-(5-chloro-6-(2,3,4-trifluorophenoxy)-3-pyridinyl)-3-methoxy-N-(methylsulfonyl)benzamide]
0.0966 µM | COc1cc(C(=O)NS(C)(=O)=O)ccc1-c1cnc(Oc2ccc(F)cc2C)c(Cl)c1 [Example 361, 4-(5-chloro-6-(4-fluoro-2-methylphenoxy)-3-pyridinyl)-3-methoxy-N-(methylsulfonyl)benzamide]
0.0636 µM | COc1cc(C(=O)NS(C)(=O)=O)ccc1-c1cnc(Oc2c(F)ccc(F)c2F)c(Cl)c1 [Example 362, 4-(5-chloro-6-(2,3,6-trifluorophenoxy)-3-pyridinyl)-3-methoxy-N-(methylsulfonyl)benzamide]
0.1 µM | COc1cc(C(=O)NS(C)(=O)=O)ccc1-c1cnc(Oc2cc(F)ccc2F)c(Cl)c1 [Example 363, 4-(5-chloro-6-(2,5-difluorophenoxy)-3-pyridinyl)-3-methoxy-N-(methylsulfonyl)benzamide]
0.0643 µM | COc1cc(C(=O)NS(C)(=O)=O)ccc1-c1cnc(Oc2cc(C)c(Cl)c(C)c2)c(Cl)c1 [Example 364, 4-(5-chloro-6-(4-chloro-3,5-dimethylphenoxy)-3-pyridinyl)-3-methoxy-N-(methylsulfonyl)benzamide]

Same assay, conditions: in-vitro Nav 1.7 PX data

IC50 | Molecule
8.35 µM | 4-(3-Chloro-4′-Methoxy-2′-Methyl-[2,3′-Bipyridin]-5-yl)-2-Fluoro-5-Methyl-N-(Methyl Sulfonyl)Benzamide [Example 840]
12.8 µM | 4-(3-Chloro-4′-Methoxy-2′-Methyl-[2,3′-Bipyridin]-5-yl)-2-Fluoro-5-Methyl-N-(Methylsulfonyl)Benzamide [Example 839]
0.0721 µM | CC(C)C1CCCN1c1ncc(-c2ccc(C(=O)NS(C)(=O)=O)cc2OC(F)F)cc1Cl (racemic) [compound 833, 4-(5-Chloro-6-(2-Isopropylpyrrolidin-1-yl)Pyridin-3-yl)-3-(Difluoromethoxy)-N-(Methylsulfonyl)Benzamide]
0.0776 µM | COc1cc(C(=O)NS(C)(=O)=O)c(F)cc1-c1cnc(O[C@@H](C)C2CCC2)c(Cl)c1 (single isomer, unassigned) [Example 767]
0.05 µM | COc1cc(C(=O)NS(C)(=O)=O)c(F)cc1-c1cnc(O[C@H](C)C2CCC2)c(Cl)c1 (single isomer, unassigned) [Example 769]

Molecule | IC50
COc1nccc(C)c1-c1cc(C(=O)NS(C)(=O)=O)ccc1-c1cnc(OCC(C)C)c(Cl)c1 (single isomer, unassigned) [Example 821, 4-(5-Chloro-6-Isobutoxypyridin-3-yl)-3-(2-Methoxy-4-Methylpyridin-3-yl)-N-(Methylsulfonyl)Benzamide] | 32 µM
